Measurements published in patent US11103158B2, “Pure non-invasive method for identification of organ diseases or impaired organ function by investigation of marker substances in exhaled air stimulated by inhaled marker substances” (FREIE UNIVERSITÄT BERLIN, priority 2015, dated 2021).
Read-outs that look alike come from different tables or passages of the source.

Tests used:
[1] = tested on: CYP 2C9 and CYP 2C19; conditions: reported by Mizayawa et al.; cited from earlier work
[2] = PTR-MS of volatile organic compounds in exhaled breath of vegan persons, volunteers and liver patients, also grouped by LiMAx value
[3] = tested on: mammary, liver, lung, and other cancers; conditions: literature reports (Mizayawa et al.; Gold 1997); cited from earlier work
[4] = in vivo

| Compound | concentration in exhaled breath (m/z 137) [4] | concentration in the expiratory air (m/z 137) [4] | further results |
| --- | --- | --- | --- |
| C=C(C)[C@H]1CC=C(C)CC1 [limonene] |  |  | metabolization by enzymes [1]: metabolized by enzymes of the Cytochrome P450 family; concentration in exhaled breath (m/z 137) ([2]; comparison of the three groups (vegan diet, normal diet, liver disease patients), taking error bars into account, FIG. 1A): almost identical; concentration in the expiratory air (m/z 137) ([2]; patients with LiMAx value below 176 compared to LiMAx 176 to 351 or above 351, FIG. 1B): significantly increased |
| C=C(C)[C@@H]1CC=C(CO)CC1 [perillyl alcohol] |  |  | chemopreventive activity / cancer prevention [3]: prevent mammary, liver, lung, and other cancers |
| CC1=CCC2CC1C2(C)C (stereo not drawn) [α-pinene] | almost identical | significantly increased |  |
| C=C1CCC2CC1C2(C)C (stereo not drawn) [β-pinene] | almost identical | significantly increased |  |
| γ-pinene | almost identical | significantly increased |  |
